From US20240327334A1, “Covalent Inhibitors As Antiviral Agents” (Enanta Pharmaceuticals, Inc., priority 2022, published 2024)
Like-named read-outs stand apart in the source and are kept apart here.

Target: SARS-CoV-2 Papain-like (PLpro) protease (Severe acute respiratory syndrome coronavirus 2, UniProt P0DTD1)
Assay: SARS-CoV-2 Papain-like (PLpro) protease biochemical enzyme inhibition assay (ubiquitin-fluorophore substrate, Ub-R110)
[1] = Ub-R110 substrate, run in duplicate, read-out: PLpro IC50

| Compound | IC50 [1] | IC50 |
| --- | --- | --- |
| CN(C#N)NC(=O)C(=O)NCc1ccccc1C(=O)NC1(c2ccc(F)c3ccccc23)CC1 [Example 124] | 1000 to 10000 nM |  |
| N#CCCCNC(=O)C(=O)NCc1ccccc1C(=O)NC1(c2ccc3ccccc3c2)CC1 [Example 403] | 1000 to 10000 nM |  |
| N#CCNC(=O)C(=O)NCc1ccc(C(=O)NC2CC2)cc1C(=O)NC1(c2ccc(F)c3ccccc23)CC1 [Example 116] | < 100 nM |  |
| CC(C)Oc1cccnc1C#C[C@H](C)NC(=O)C(=O)NCc1ccccc1C(=O)NC1(c2cc(F)cc(-c3cnn(C4CC4)c3)c2)CC1 [Example 268] | 100 to 1000 nM |  |
| COc1cc(C2(NC(=O)c3ccccc3CNC(=O)C(=O)NC/C=C/c3cnccn3)CC2)cc2cn(C3CC3)nc12 [Example 579] | 100 to 1000 nM |  |
| C#CCNC(=O)C(=O)NCc1ccccc1C(=O)NC1(c2cc(Oc3cccc(OC)c3)cc(C(F)(F)F)c2)CC1 [Example 63] | > 10000 nM |  |
| COC(=O)/C=C/CNC(=O)C(=O)NCc1ccccc1C(=O)N[C@H](C)c1cc(-c2ccccc2)cc(C(F)(F)F)c1 [Example 35] | < 100 nM |  |
| N#CN1CC(NC(=O)C(=O)NCc2ccccc2C(=O)NC2(c3cccc4ccccc34)CC2)C1 [Example 436, N1-(1-cyanoazetidin-3-yl)-N2-(2-((1-(naphthalen-1-yl)cyclopropyl)carbamoyl)benzyl)oxalamide] | 100 to 1000 nM |  |
| C#CCNC(=O)C(=O)NCc1ccccc1C(=O)NC1(c2cccc3ncccc23)CC1 [Example 374] | < 100 nM |  |
| N#Cc1ncc(C#CCNC(=O)C(=O)NCc2ccccc2C(=O)NC2(c3ccc4ccccc4c3)CC2)cn1 [Example 182] | > 10000 nM |  |
| C#C[C@@H](C)NC(=O)C(=O)NCc1ccccc1C(=O)NC1(c2cccc3ccccc23)CC1 [Example 157] | 1000 to 10000 nM |  |
| N#CCNC(=O)C(=O)NCc1ccccc1C(=O)NC1(c2cc(C(F)(F)F)cc(C(F)(F)F)c2)CC1 [Example 45] | 1000 to 10000 nM |  |
| COc1ccc(C#C[C@H](C)NC(=O)C(=O)NCc2ccccc2C(=O)NC2(c3ccc4nn(C)cc4c3)CC2)c(C#N)c1 [Example 112] | < 100 nM |  |
| NC(=O)N1CCC[C@H]1CNC(=O)C(=O)NCc1ccccc1C(=O)NC1(c2cccc3ccccc23)CC1 [Example 505] | 1000 to 10000 nM |  |
| C#CCNC(=O)C(=O)NCc1ccccc1C(=O)NC1(c2cc(-c3nnc(C)o3)cc(-c3nnc(C)o3)c2)CC1 [Example 479] | 100 to 1000 nM |  |
| N#CCCCCNC(=O)C(=O)NCc1ccccc1C(=O)NC1(c2cc(Br)cc3ccccc23)CC1 [Example 421] | 1000 to 10000 nM |  |
| C[C@@H](NC(=O)c1ccccc1CNC(=O)C(=O)NC/C=C/C(=O)NC(C)(C)CO)c1cccc2ccccc12 [Example 551] | 1000 to 10000 nM |  |
| N#CCNC(=O)C(=O)NCc1ccccc1C(=O)NC1(c2cccc3ccccc23)COC1 [Example 96] | > 10000 nM |  |
| N#CCNC(=O)C(=O)NCc1ccccc1C(=O)NC1(c2cc(N3CCOC3=O)cc3ccccc23)CC1 [Example 317] | < 100 nM |  |
| COC(=O)/C=C/CNC(=O)C(=O)NCc1c(F)cc(F)cc1C(=O)N[C@H](C)c1cccc2ccccc12 [Example 30] | 100 to 1000 nM |  |
| Cc1nnc(-c2cc(Cl)cc(C3(NC(=O)c4ccccc4CNC(=O)C(=O)NCC#N)CC3)c2)o1 [Example 483] | 100 to 1000 nM |  |
| N#CN1CCC[C@H]1CC(=O)NCc1ccccc1C(=O)NC1(c2cc(Br)cc3ccccc23)CC1 [Example 316] | 100 to 1000 nM |  |
| CC#CCNC(=O)C(=O)NCc1ccccc1C(=O)NC1(c2cccc3ccccc23)CC1 [Example 150] | 1000 to 10000 nM |  |
| CC(C)[C@@H](C#Cc1ccccn1)NC(=O)C(=O)NCc1ccccc1C(=O)NC1(c2ccc3nn(C)cc3c2)CC1 [Example 204] | > 10000 nM |  |

| Compound | IC50 [1] | IC50 |
| --- | --- | --- |
| C#C[C@@H](NC(=O)C(=O)NCc1ccccc1C(=O)NC1(c2ccc3nn(C)cc3c2)CC1)C(C)C [Example 91] | > 10000 nM |  |
| COC(=O)/C=C/CNC(=O)C(=O)NCC1C[C@H]1C(=O)N[C@H](C)c1cccc2ccccc12 (some centres unmarked) [Example 18] | 1000 to 10000 nM |  |
| CC(C)(O)/C=C/c1cc(C2(NC(=O)c3ccccc3CNC(=O)C(=O)NCC#N)CC2)c2ccccc2c1 [Example 422] | < 100 nM |  |
| Cc1nnc(-c2cc(-c3nnc(C)o3)cc(C3(NC(=O)c4ccccc4CNC(=O)C(=O)NCC#N)CC3)c2)o1 [Example 478] | 100 to 1000 nM |  |
| C#CCNC(=O)C(=O)NCc1ccccc1C(=O)NC1(c2cc(Cl)c3nn(C4CC4)cc3c2)CC1 [Example 339] | < 100 nM |  |
| CC(C)(C)OC(=O)NNC(=O)/C=C/CNC(=O)C(=O)NCc1ccccc1C(=O)NC1(c2cccc3ccccc23)CC1 [Example 548] | 100 to 1000 nM |  |
| C[C@@H](C#Cc1ncccc1C(F)(F)F)NC(=O)C(=O)NCc1ccccc1C(=O)NC1(c2cc(F)cc(-c3cnn(C4CC4)c3)c2)CC1 [Example 142] | 100 to 1000 nM |  |
| CCOc1cccnc1C#CC1(NC(=O)C(=O)NCc2ccccc2C(=O)NC2(c3ccc4ccccc4c3)CC2)CC1 [Example 203] | > 10000 nM |  |
| N#CC1CCCN1C(=O)C(=O)NCc1ccccc1C(=O)NC1(c2cccc3ccccc23)CC1 (centres unmarked) [Example 41] | > 10000 nM |  |
| CCCOC(=O)/C=C/CNC(=O)C(=O)NCc1ccccc1C(=O)NC1(c2cccc3ccccc23)CC1 [Example 552] | 100 to 1000 nM |  |
| CC#CC(=O)NNC(=O)C(=O)NCc1ccccc1C(=O)N[C@H](C)c1cccc2ccccc12 [Example 7] | > 10000 nM |  |
| CCOP(=O)(/C=C/CCNC(=O)C(=O)NCc1ccccc1C(=O)N[C@H](C)c1cccc2ccccc12)OCC [Example 12] |  | > 10000 nM |
| C#CCNC(=O)C(=O)NCc1ccccc1C(=O)NC1(c2cc(-c3c(C)nn(C)c3C)ccc2Cl)CC1 [Example 395] | 100 to 1000 nM |  |
| C[C@@H](C#Cc1ccc([S+](C)[O-])cc1)NC(=O)C(=O)NCc1ccccc1C(=O)NC1(c2ccc3nn(C)cc3c2)CC1 (some centres unmarked) [Example 111] | 1000 to 10000 nM |  |
| O=C(NCC#Cc1nccs1)C(=O)NCc1ccccc1C(=O)NC1(c2cccc3cnccc23)CC1 [Example 391] | < 100 nM |  |
| C=C(CNC(=O)C(=O)NCc1ccccc1C(=O)N[C@H](C)c1cccc2ccccc12)C(=O)O [Example 42] | > 10000 nM |  |
| C[C@@H](NC(=O)c1ccccc1CNC(=O)C(=O)N1CCC(=O)N1)c1cccc2ccccc12 [Example 23] | > 10000 nM |  |
| Cc1nn(C)cc1-c1cc(Cl)cc(C2(NC(=O)c3ccccc3CNC(=O)C(=O)NCC#N)CC2)c1 [Example 482] | < 100 nM |  |
| N#CCNC(=O)C(=O)NCc1ccccc1C(=O)NC1(c2cc(Cl)cc(-c3cnc(C(F)(F)F)nc3)c2)CC1 [Example 72] | 100 to 1000 nM |  |
| O=C(NC/C=C/c1cnccn1)C(=O)NCc1ccccc1C(=O)NC1(c2ccc3ccccc3c2)CC1 [Example 580] | 100 to 1000 nM |  |
| CN(C(=O)c1cc(Cl)cc(C2(NC(=O)c3ccccc3CNC(=O)C(=O)NCC#N)CC2)c1)c1ccc(F)cc1 [Example 78] | 100 to 1000 nM |  |
| O=C(NCc1ccccc1C(=O)NC1(c2ccc(F)c3ccccc23)CC1)C(=O)N[C@H]1CNC1=O [Example 122] | > 10000 nM |  |
| COC(=O)/C=C/CNC(=O)C(=O)NCc1ccccc1C(=O)NC1(c2ccc3ccccc3c2)CC1 [Example 43] | < 100 nM |  |
| N#CCNC(=O)C(=O)NCc1ccccc1C(=O)NC1(c2cc(F)cc(C(F)(F)F)c2)CC1 [Example 375] | 1000 to 10000 nM |  |

| Compound | IC50 [1] | IC50 |
| --- | --- | --- |
| O=C(NCC#CC1CC1)C(=O)NCc1ccccc1C(=O)NC1(c2ccc3ccccc3c2)CC1 [Example 523] | > 10000 nM |  |
| C#CCNC(=O)C(=O)NCc1ccccc1C(=O)NC1(c2ccc3ncccc3c2)CC1 [Example 388] | < 100 nM |  |
| N#CCCNC(=O)C(=O)NCCc1ccccc1C(=O)NC1(c2ccc3ccccc3c2)CC1 [Example 368] | > 10000 nM |  |
| COc1cccc(Oc2cc(C(F)(F)F)cc(C3(NC(=O)c4ccccc4CNC(=O)C(=O)NCC#N)CC3)c2)c1 [Example 64] | > 10000 nM |  |
| COC(=O)/C=C/CNC(=O)C(=O)NC(C)c1ccccc1C(=O)N[C@H](C)c1cccc2ccccc12 (some centres unmarked) [Example 52] | 1000 to 10000 nM |  |
| N#CCNC(=O)C(=O)NCc1ccccc1C(=O)NC1(c2ccc(Br)cc2)CC1 [Example 544] | 1000 to 10000 nM |  |
| N#CCNC(=O)C(=O)NCc1ccccc1C(=O)NC1(c2ccc3nc(C4CC4)ccc3c2)CC1 [Example 400] | < 100 nM |  |
| C=CCNC(=O)C(=O)NCc1ccccc1C(=O)NC1(c2ccc3ccccc3c2)CC1 [Example 497] | > 10000 nM |  |
| N#CCNC(=O)C(=O)NCc1ccccc1C(=O)NC1(c2cc(C(F)(F)F)ccc2Cl)CC1 [Example 377] | 100 to 1000 nM |  |
| N#CCNC(=O)C(=O)NCc1ccccc1C(=O)NC1(c2cc(Oc3ccccc3)cc(C(F)(F)F)c2)CC1 [Example 68] | > 10000 nM |  |
| N#CCCCNC(=O)C(=O)NCc1ccccc1C(=O)NC1(c2cccc3ccccc23)CC1 [Example 412] | 1000 to 10000 nM |  |
| CC(C)(C)OC(=O)N1CC[C@@H](CNC(=O)C(=O)NCc2ccccc2C(=O)NC2(c3cccc4ccccc34)CC2)C1 [Example 507] | > 10000 nM |  |
| C[C@@H](NC(=O)c1ccccc1CNC(=O)C(=O)NCC#N)c1cc(C(F)(F)F)nc2ccccc12 [Example 325] | > 10000 nM |  |
| O=C(NCC#Cc1nccs1)C(=O)NCc1ccccc1C(=O)NC1(c2cc(Cl)cc(-c3nccs3)c2)CC1 [Example 488] | < 100 nM |  |
| N#CCNC(=O)C(=O)NCc1ccccc1C(=O)NC1(c2cccc(Br)c2F)CC1 [Example 373] | 100 to 1000 nM |  |
| C[C@@H](NC(=O)c1ccccc1CNC(=O)C(=O)NCC#N)c1cc(-c2ccccc2)cc(C(F)(F)F)c1 [Example 34] | < 100 nM |  |
| O=C(NCC#Cc1nccs1)C(=O)NCc1ccccc1C(=O)NC1(c2ccc3ncccc3c2)CC1 [Example 389] | < 100 nM |  |
| O=C(NCC#Cc1nccs1)C(=O)NCc1ccccc1C(=O)NC1(c2cccc3nc(C4CC4)ccc23)CC1 [Example 390] | < 100 nM |  |
| COC(=O)/C=C/CCNC(=O)C(=O)NCC1C[C@H]1C(=O)N[C@H](C)c1cccc2ccccc12 (some centres unmarked) [Example 17] | > 10000 nM |  |
| N#CCNC(=O)C(=O)N1Cc2cccc(C(=O)NC3(c4cc(Br)cc5ccccc45)CC3)c2C1 [Example 315] | 1000 to 10000 nM |  |
| C#CCNC(=O)C(=O)NCc1ccccc1C(=O)NC1(c2cccc3ccccc23)CC1 [Example 32] | < 100 nM |  |
| Cn1cc(C#CCNC(=O)C(=O)NCc2ccccc2C(=O)NC2(c3ccc4ccccc4c3)CC2)cn1 [Example 169] | > 10000 nM |  |
| CC(C)[C@@H](C#Cc1ncccc1C(F)(F)F)NC(=O)C(=O)NCc1ccccc1C(=O)NC1(c2ccc3nn(C)cc3c2)CC1 [Example 205] | > 10000 nM |  |
